This is an account of results in paper PMC12858582, “A coral-derived neuropeptide suppresses pentylenetetrazol (PTZ)-induced epileptic seizures and improves recognition memory deficits by modulating NPY-Y1R” (Archives of Toxicology, 2025).

In data set [1] the test system is C57BL/6 J mice. The data set can be described thus: PTZ-kindling-induced epileptic mice model. It counts as in vivo. As for the experimental part:
The PTZ-kindling-induced epileptic mice model was monitored as previously described (Singh et al. [2021]). PTZ (30 mg/kg, subconvulsive dose) was dissolved in saline and administered via intraperitoneal injection. TpNPY was dissolved in saline and delivered through daily intravenous injection of increasing concentrations (0.25 mg/kg, 0.5 mg/kg and 1 mg/kg) 30 min before PTZ injections for 14 consecutive days. Randomized grouping was used to divide C57BL/6 mice into 7 groups with 10 mice in each group. Then, behavioral observation was carried out at the same time, until the seizure of mice was kindled. The PTZ-only group was not exposed to TpNPY, and the control group was only given saline.

A further data set concerns HT22 cells. The data set can be described thus: HT22 cell viability (MTT assay). Conditions: for cell viability: 24 h. It counts as cell-based, mouse. Here is the method: The HT22 cell line was obtained from the ATCC (Manassas, VA, USA) and cultured in DMEM medium with an additional 10% fetal bovine serum (Gibco, US origin), 1% penicillin (100 U/mL) and streptomycin 100 (µg/mL) in a humidified 5% CO2 atmosphere at 37 °C. Cell viability was evaluated by measuring the activity of mitochondrial dehydrogenases with 3-(4,5-dimethyl-2-thiazolyl) 2,5 diphenyl-2H-tetrazolium bromide (MTT) assay (Sigma-Aldrich, USA). Briefly, HT22 cells were seeded in 96-well plates at a density of 8 × 10^3 cells per well. After various drug incubation, cells were incubated in 0.5 mg/mL MTT solution for 4 h at 37 °C. The supernatant medium was then discarded, and 100 µL of DMSO per well was added to dissolve the violet-formazan crystals. The absorbance at 570 nm wavelength was then tested by SpectraMax M5 (Wallac, The Netherlands). Under the same cell culture conditions as the cell viability assay, cytotoxicity was also evaluated via LDH release using an LDH assay kit (Beyotime, China). After different treatments, the supernatant of the cell culture medium was collected and tested according to the manufacturer’s protocol. The absorbance at 490 nm wavelength of supernatant was recorded by SpectraMax M5 (Wallac, The Netherlands).
Background: Tetrazolium dyes change colour on reduction, which living cells bring about.

The next data set relates to zebrafish larvae. The data set can be described thus: Zebrafish larvae survival/mortality. Conditions: 24 h exposure, 6-dpf AB wild-type larvae. It counts as in vivo. Here is the method: The 6-day post-fertilization (6-dpf) AB wild-type zebrafish were treated with various concentrations of TpNPY for 24 h in zebrafish-specific E3 culture medium. The mortality of zebrafish was calculated based on the observation of their heartbeat. To trigger seizures, zebrafish larvae were subjected to zebrafish culture medium containing 10 mM PTZ (Sigma-Aldrich, purity ≥ 99%) in 96-well plates. Their locomotor behaviors were recorded using a digital video tracking system (ViewPoint Behavior Technology, France).

The subject of data set [2] is C57BL/6 J mice. Put plainly: Morris water maze (MWM) test. Type of data set: in vivo. Conditions: MWM test stage, n = 6. Here is the method: The Morris Water Maze (MWM) test assessed spatial learning and memory in mice (Bromley-Brits et al. [2011]). A circular pool (opaque with milk powder) was divided into four quadrants, with a hidden platform submerged in the third quadrant. Eight-week-old male C57BL/6 J mice were trained over five days (4 trials/day) to locate the platform, guided by visual cues. Escape latency (max 60 s) and platform stay time (30 s) were recorded. A probe trial (platform removed) was conducted 24 h post-training, recording time to the platform site, crossings, speed, and distance via a video camera connected to the ANY-maze Video Tracking System.

Data set [3] concerns the target T1, NPY-Y1 receptor (NPY-Y1R) (Homo sapiens, UniProt P25929).
T1 chain: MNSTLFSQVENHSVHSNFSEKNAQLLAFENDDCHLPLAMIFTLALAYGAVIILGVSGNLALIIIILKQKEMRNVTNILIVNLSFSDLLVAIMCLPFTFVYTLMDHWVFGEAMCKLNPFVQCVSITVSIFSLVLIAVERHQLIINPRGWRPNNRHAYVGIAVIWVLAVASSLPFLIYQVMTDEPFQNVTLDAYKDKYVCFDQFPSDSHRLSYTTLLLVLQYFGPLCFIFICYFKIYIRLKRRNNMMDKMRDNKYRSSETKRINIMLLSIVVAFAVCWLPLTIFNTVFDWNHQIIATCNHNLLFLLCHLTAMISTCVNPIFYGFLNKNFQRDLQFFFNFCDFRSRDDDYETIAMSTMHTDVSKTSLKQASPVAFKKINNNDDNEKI
The data set can be described thus: SPR. In general terms: Surface plasmon resonance follows binding to a sensor surface in real time, without labels.

Where no end group is shown, it is not given here.

Regarding `C1CCc2nnnn2CC1` [PTZ, Pentylenetetrazole, reference compound], the seizure score with C57BL/6 J mice [1] (PTZ-treated group, PTZ 30 mg/kg i.p., no TpNPY, after 15 injections, mean ± SEM, SEM) is reported as 4.91 ± 0.41.
As a reminder, the cell viability is the share of living cells, or the viability signal relative to a control. Low readings indicate a greater loss of cells, high ones better survival. Take `N[C@@H](CCC(=O)O)C(=O)O` [glutamate]: the cell viability in the data set with HT22 cells (10 mM glutamate) was 78.22%; with HT22 cells (15 mM glutamate) it was 64.78%; in the data set on HT22 cells (20 mM glutamate) it was 40.82%.
Consider “VGGPPKRPESFKSMAELNAYLSDLAGYYTVIGRPRF-NH2 [TpNPY]”, for which the “mortality rate of zebrafish larvae” value with zebrafish larvae (40 μM) is given as “approximately 50%”. In addition, the “survival rate of zebrafish larvae” value in the data set on zebrafish larvae (6-25 μM) was “did not lead to any substantial changes in the survival rate”. For the same molecule, in the data set with C57BL/6 J mice [1] (TpNPY without PTZ), the “behavior of mice, TpNPY alone” value is listed as “no obvious influence on the behavior of mice”. For the same molecule, the “cell viability (cytotoxicity of TpNPY)” value in the data set on HT22 cells (1.56 to 50 μM, 24 h incubation) was “did not elicit any significant changes in cell viability”. Also, in the data set on C57BL/6 J mice [2], the swimming speed result was “without affecting swimming speed”.
What is called Kd is the constant that tells how readily two partners part at equilibrium. In turn, VGGPPKRPESFKSMAELNAYLSDLAGYYTVIGRPRF-NH2 [TpNPY] gave a Kd in data set [3] of 1980 nM.
